Values after ≈ are worked out from the molar mass of the structure shown.
Tests used:
Oryctolagus cuniculus [1] = species: Oryctolagus cuniculus
Oryctolagus cuniculus [2] = species: Oryctolagus cuniculus; remark: listed apart in the source
Oryctolagus cuniculus [3] = species: Oryctolagus cuniculus; remark: listed apart in the source
Oryctolagus cuniculus [4] = species: Oryctolagus cuniculus; remark: listed apart in the source
Carbonic anhydrase 1 = Carbonic anhydrase 1 (Homo sapiens, UniProt P00915)
Description: Inhibitory activity against Human carbonic anhydrase I

Carbonic anhydrase 4 = target: T1, Carbonic anhydrase 4 (Bos taurus, UniProt Q95323)
T1 sequence (Q95323 whole entry): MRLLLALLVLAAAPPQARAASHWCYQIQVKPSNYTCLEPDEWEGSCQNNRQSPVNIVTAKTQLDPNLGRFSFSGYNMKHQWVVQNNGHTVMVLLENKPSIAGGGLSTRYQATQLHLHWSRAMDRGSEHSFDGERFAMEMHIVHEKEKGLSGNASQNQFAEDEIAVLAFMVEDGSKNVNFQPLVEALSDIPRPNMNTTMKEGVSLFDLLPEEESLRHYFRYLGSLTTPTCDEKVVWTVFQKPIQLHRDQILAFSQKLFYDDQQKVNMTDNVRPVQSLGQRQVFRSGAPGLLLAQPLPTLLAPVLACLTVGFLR
Description: Inhibitory activity against bovine carbonic anhydrase IV

[5] = Solubility in Chloroform buffer at pH 7.4; format: physicochemical
[6] = octanol/water
[7] = not given; remark: listed apart in the source
physchem = details: buffer, pH 5.5
Description: Solubility in buffer at pH 5.5

[8] = not given; remark: listed apart in the source
[9] = not given; remark: listed apart in the source
[10] = Partition coefficient in Chloroform-buffer at pH 7.4; format: physicochemical
[11] = Solubility in buffer at pH 7.4; format: physicochemical
[12] = Solubility in chloroform buffer at pH 7.4; format: physicochemical

Sequence of Carbonic anhydrase 1 (P00915 whole entry): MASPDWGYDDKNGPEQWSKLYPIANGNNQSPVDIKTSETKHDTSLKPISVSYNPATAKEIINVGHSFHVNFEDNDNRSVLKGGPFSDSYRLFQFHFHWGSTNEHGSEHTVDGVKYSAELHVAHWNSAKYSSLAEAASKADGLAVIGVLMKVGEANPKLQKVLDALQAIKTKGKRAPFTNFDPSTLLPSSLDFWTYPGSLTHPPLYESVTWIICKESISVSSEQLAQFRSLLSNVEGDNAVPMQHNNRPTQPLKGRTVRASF

Compound | Kin x10e3 [hr-1] | Ki (Carbonic anhydrase 1) [nM] | Ki (Carbonic anhydrase 4) [nM] | solubility [5] [mM] | logD [6] | Kin x10e3 [7] [hr-1] | solubility (physchem) [mM] | Kin x10e3 [8] [hr-1] | Kin x10e3 [9] [hr-1] | also measured
(Carboxymethyl-{2-[2-(2-{carboxymethyl-[(5-sulfamoyl-[1,3,4]thiadiazol-2-ylcarbamoyl)-methyl]-amino}-ethoxy)-ethoxy]-ethyl}-amino)-acetic acid; compound with Cu complex | – | – | – | – | – | – | – | – | – | Delta IOP (Oryctolagus cuniculus [1]): 0 mmHg; Delta IOP (Oryctolagus cuniculus [2]): 13.5 mmHg; Delta IOP (Oryctolagus cuniculus [3]): 9.6 mmHg; Delta IOP (Oryctolagus cuniculus [4]): 4.7 mmHg
Cn1nc(S(N)(=O)=O)s/c1=N/C(=O)CN(CCN(CC(=O)O)CC(=O)O)CC(=O)O | 9.5 | 215 | 26 | 65 (≈ 30.5 mg/mL) | 1.75 | 4.8 | – | – | – | –
NS(=O)(=O)c1ccc(NC(=O)CN(CCOCCOCCN(CC(=O)O)CC(=O)Nc2ccc(S(N)(=O)=O)cc2F)CC(=O)O)c(F)c1 | – | 155 | 16 | – | 1.534 | – | 47 (≈ 34.1 mg/mL) | 8.3 | 4.5 | –
Cn1nc(S(N)(=O)=O)s/c1=N/C(=O)CN(CCN(CC(=O)O)CC(=O)/N=c1/sc(S(N)(=O)=O)nn1C)CC(=O)O | 5.5 | – | 17 | 41 (≈ 26.4 mg/mL) | 1.333 | 3.1 | – | – | – | –
NS(=O)(=O)c1nc2ccc(OCCOC(=O)CN(CC(=O)O)CC(=O)O)cc2s1 | – | 44 | 10 | – | – | – | – | – | – | logD [10]: 1.925; solubility [11]: 37 mM (≈ 16.6 mg/mL)
NS(=O)(=O)c1ccc(NC(=O)CN(CCOCCOCCN(CC(=O)O)CC(=O)O)CC(=O)O)c(Br)c1 | – | 78 | 32 | – | 1.747 | – | 50 (≈ 30.7 mg/mL) | 6.5 | 3.3 | –
NS(=O)(=O)c1cc(S(N)(=O)=O)c(NC(=O)CN(CCN(CC(=O)O)CC(=O)Nc2c(S(N)(=O)=O)cc(S(N)(=O)=O)c(Cl)c2Cl)CC(=O)O)c(Cl)c1Cl | 7 | 65 | 51 | 32 (≈ 28.7 mg/mL) | 1.764 | 3.6 | – | – | – | –
NS(=O)(=O)c1nnc(NC(=O)CCNC(=O)CNCC(=O)O)s1 | 4.6 | 280 | 48 | – | – | 2.5 | – | – | – | solubility [12]: 62 mM (≈ 22.7 mg/mL); logD [10]: 1.23
NS(=O)(=O)c1nnc(NC(=O)CN(CCN(CCN(CC(=O)O)CC(=O)O)CC(=O)O)CC(=O)O)s1 | 8.1 | – | 28 | 59 (≈ 32.8 mg/mL) | 1.375 | 4.3 | – | – | – | –
NS(=O)(=O)c1nnc(NC(=O)CCNC(=O)CN(CCN(CC(=O)O)CC(=O)NCCC(=O)Nc2nnc(S(N)(=O)=O)s2)CC(=O)O)s1 | 5.9 | 125 | 10 | – | 1.15 | 3 | – | – | – | solubility [11]: 46 mM (≈ 34.9 mg/mL)
NS(=O)(=O)C1N=NC(NC(=O)CN(CCN(CCN(CC(=O)O)CC(=O)NC2N=NC(S(N)(=O)=O)S2)CC(=O)O)CC(=O)O)S1 (configuration not stated) | – | – | 7 | – | 1.961 | – | 54 (≈ 39 mg/mL) | 6.2 | 3.9 | –
NS(=O)(=O)c1nnc(NC(=O)CCNC(=O)CN(CCN(CC(=O)O)c2ccccc2O)c2ccccc2O)s1 | 10.7 | 210 | 35 | 44 (≈ 26.1 mg/mL) | 2.354 | 5.1 | – | – | – | –
NS(=O)(=O)c1nnc(NC(=O)CN(CCOCCOCCN(CC(=O)O)CC(=O)O)CC(=O)O)s1 | – | 54 | 21 | – | 1.446 | – | 52 (≈ 28.2 mg/mL) | 8.4 | 4.6 | –
NS(=O)(=O)c1nc2ccc(OC(=O)CNCCNCC(=O)O)cc2s1 | – | 45 | 11 | – | 1.166 | – | 44 (≈ 17.1 mg/mL) | 8.4 | 4.7 | –
